Laboratory results reported in patent publication US10087436B2, “Electrophysiologically mature cardiomyocytes and methods for making same” (The Regents of the University of California, priority 2014, dated 2018).

System: Ad-Kir2.1-silenced ventricular hESC-CMs
Assay: Addition of the IK1 blocker Ba2+ to Ad-Kir2.1-silenced ventricular hESC-CMs (patch-clamp)
Type: cell-based, human
Settings: 200 μM Ba2+
Experimental: HESC- and hiPSC-CMs were dissociated into single cells with 1 mg/ml collagenase II and plated on 0.1% gelatin-coated glass coverslips. Electrophysiological experiments were performed using whole-cell patch-clamp technique with an Axopatch 200B amplifier and the pClamp9.2 software (Axon Instruments Inc., Foster City, Calif.). Pipette solution was consisted of (mM): 110 K^+ aspartate, 20 KCl, 1 MgCl2, 0.1 Na-GTP, 5 Mg-ATP, 5 Na2-phospocreatine, 1 EGTA and 10 HEPES, with pH of 7.3. The external Tyrode's solution consisted of (mM): 140 NaCl, 5 KCl, 1 CaCl2, 1 MgCl2, 10 glucose, and 10 HEPES with pH of 7.4. Voltage- and current-clamp recordings were performed at 37° C. within 24 to 48 hours after adenovirus transduction. ESC-CMs were categorized into pacemaker, atrial or ventricular phenotypes based on the maximum diastolic potential (MDP), maximum rate of rise of the AP and AP duration (APD). […] Atrial cells with a triangular AP profile have a faster rate of rise than pacemaker cells, more hyperpolarized MDP or resting membrane potential (RMP), and intermediate APD. […] Different protocols as given in insets were employed to elicit the corresponding currents. […] All blockers were purchased from Sigma.

## [Ba+2] [Ba^2+]
  firing phenotype upon addition of Ba2+: spontaneously fired APs
